Holding throughout (assay): MIC, agar dilution (MHA), compound alone
Holding throughout (format): cell-based

For one assay, the system named is E. coli M 50. The conditions noted are these: E. coli M 50, compound alone, MHA, 35° C., 18 hours. On the procedure:
(§1) The biological activity of representative compounds according to the invention against various bacterial strains was investigated. The Minimum Inhibitory Concentration (MIC) determination for the combinations was carried out in Muller Hinton Agar (MHA) (BD, USA) according to Clinical and Laboratory Standards Institute (CLSI) recommendations, (Clinical and Laboratory Standards Institute (CLSI), Performance Standards for Antimicrobial Susceptibility Testing, 20th Informational Supplement, M 100-S20, Volume 30, No. 1, 2010). In short, the test strains were adjusted to deliver about 10^4 CFU per spot with a multipoint inoculator (Applied Quality Services, UK). The plates were poured with MHA containing doubling concentration range of representative compounds according to present invention. The plates were inoculated and were incubated at 35° C. for 18 hours. […] The Table 5 depicts the antibacterial activity profile of compounds according to present invention against various multidrug resistant bacterial strains.

A further assay concerns K. pneumoniae H521. To be noted: K. pneumoniae H521, compound alone, MHA, 35° C., 18 hours. On the procedure: as §1
The next assay deals with E. coli 7 MP. To be noted: E. coli 7 MP, compound alone, MHA, 35° C., 18 hours. On the procedure: as §1
A further assay deals with E. coli NCTC 13352. To be noted: E. coli NCTC 13352, compound alone, MHA, 35° C., 18 hours. As for the experimental part:
as §1

In assay [1] the test system is K. pneumoniae ATCC 700603. To be noted: K. pneumoniae ATCC 700603, compound alone, MHA, 35° C., 18 hours. As for the experimental part:
as §1

Another assay deals with E. coli NCTC 13353. The conditions noted are these: E. coli NCTC 13353, compound alone, MHA, 35° C., 18 hours. On the procedure:
as §1

Another assay has as its system K. pneumoniae H525. To be noted: K. pneumoniae H525, compound alone, MHA, 35° C., 18 hours. On the procedure: as §1
The mark [2] stands for this setting: Escherichia coli, M50, read-out: MIC.
Setting [3] is: Klebsiella pneumoniae, read-out: MIC.
[4] abbreviates: Escherichia coli, read-out: MIC.
[5] abbreviates: Escherichia coli, NCTC13352, read-out: MIC.
Setting [6] is: Klebsiella pneumoniae, ATCC700603, read-out: MIC.
[7] abbreviates: Escherichia coli, NCTC13353, read-out: MIC.

Like-named read-outs stand apart in the source and are kept apart here.

In general, MIC refers to the least concentration at which growth counts as inhibited. In the case of `O=C(NOCCn1cncn1)[C@@H]1CC[C@@H]2CN1C(=O)N2OS(=O)(=O)O` [Example 48], the MIC was 8 µg/mL with E. coli M 50 (setting [2]); over 32 µg/mL with K. pneumoniae H521 (setting [3]); over 32 µg/mL in the assay on E. coli 7 MP (setting [4]); 16 µg/mL in the assay with E. coli NCTC 13352 (setting [5]); over 32 µg/mL in assay [1] (setting [6]); 8 µg/mL in the assay on E. coli NCTC 13353 (setting [7]). The MIC in the assay on K. pneumoniae H525 (setting [3]) came to 32 µg/mL.

As for `Nc1nnnn1CC(=O)NNC(=O)[C@@H]1CC[C@@H]2CN1C(=O)N2OS(=O)(=O)O` [Example 24, (2S,5R)-N′-[(5-amino-1H-tetrazol-1-yl)acetyl]-7-oxo-6-(sulfooxy)-1,6-diazabicyclo[3.2.1]octane-2-carbohydrazide], the minimal inhibitory concentration (MIC) in the assay with E. coli M 50 (setting [2]) is 0.5 µg/mL; with K. pneumoniae H521 (setting [3]), 2 µg/mL; in the assay with E. coli 7 MP (setting [4]), 2 µg/mL; with E. coli NCTC 13352 (setting [5]), 1 µg/mL; in assay [1] (setting [6]), over 32 µg/mL; with E. coli NCTC 13353 (setting [7]), 0.5 µg/mL. The MIC in the assay with K. pneumoniae H525 (setting [3]) was 2 µg/mL.

Turning to `O=C(NOCCn1ccnn1)[C@@H]1CC[C@@H]2CN1C(=O)N2OS(=O)(=O)O` [Example 47], the MIC is 8 µg/mL in the assay on E. coli M 50 (setting [2]); over 32 µg/mL with K. pneumoniae H521 (setting [3]); 32 µg/mL in the assay on E. coli 7 MP (setting [4]); 8 µg/mL with E. coli NCTC 13352 (setting [5]); over 32 µg/mL in assay [1] (setting [6]); 8 µg/mL in the assay with E. coli NCTC 13353 (setting [7]). Also, the MIC in the assay on K. pneumoniae H525 (setting [3]) is over 32 µg/mL.

Consider `O=C(Cn1nnnc1CCO)NNC(=O)[C@@H]1CC[C@@H]2CN1C(=O)N2OS(=O)(=O)O.[Na]` [Example 38, Sodium salt of (2S,5R)-N′-{[5-(2-hydroxyethyl)-1H-tetrazol-1-yl]acetyl}-7-oxo-6-(sulfooxy)-1,6-diazabicyclo[3.2.1]octane-2-carbohydrazide], for which the MIC was 0.25 µg/mL in the assay on E. coli M 50; 0.5 µg/mL in the assay with K. pneumoniae H521; 1 µg/mL in the assay with E. coli 7 MP; 0.25 µg/mL in the assay on E. coli NCTC 13352; over 32 µg/mL in assay [1]; 0.25 µg/mL in the assay with E. coli NCTC 13353. In addition, in the assay on K. pneumoniae H525, the MIC turned out to be 0.5 µg/mL.

Regarding `NCc1nnnn1CC(=O)NNC(=O)[C@@H]1CC[C@@H]2CN1C(=O)N2OS(=O)(=O)O` [Example 25], the MIC in the assay with E. coli M 50 (setting [2]) is 0.5 µg/mL; with K. pneumoniae H521 (setting [3]), 1 µg/mL; with E. coli 7 MP (setting [4]), 2 µg/mL; in the assay with E. coli NCTC 13352 (setting [5]), 1 µg/mL; in assay [1] (setting [6]), over 32 µg/mL; in the assay with E. coli NCTC 13353 (setting [7]) it was 1 µg/mL. Further, the MIC in the assay with K. pneumoniae H525 (setting [3]) is 1 µg/mL.

In the case of `NC(=O)c1nnn(CC(=O)NNC(=O)[C@@H]2CC[C@@H]3CN2C(=O)N3OS(=O)(=O)[O-])n1.[Na+]` [Example 16], the MIC was 1 µg/mL in the assay with E. coli M 50 (setting [2]); 2 µg/mL in the assay with K. pneumoniae H521 (setting [3]); 2 µg/mL in the assay with E. coli 7 MP (setting [4]); 1 µg/mL in the assay with E. coli NCTC 13352 (setting [5]); over 32 µg/mL in assay [1] (setting [6]); 1 µg/mL with E. coli NCTC 13353 (setting [7]). In the assay with K. pneumoniae H525 (setting [3]), the MIC stood at 2 µg/mL.

For the compound `O=C(Cn1nnc(CCO)n1)NNC(=O)[C@@H]1CC[C@@H]2CN1C(=O)N2OS(=O)(=O)[O-].[Na+]` [Example 39], the MIC is 0.5 µg/mL with E. coli M 50 (setting [2]); 1 µg/mL in the assay with K. pneumoniae H521 (setting [3]); 1 µg/mL in the assay with E. coli 7 MP (setting [4]); 0.5 µg/mL in the assay with E. coli NCTC 13352 (setting [5]); over 32 µg/mL in assay [1] (setting [6]); 0.5 µg/mL in the assay on E. coli NCTC 13353 (setting [7]). Also, in the assay with K. pneumoniae H525 (setting [3]), the MIC was found to be 2 µg/mL.

As for `O=C(Cn1ncnn1)NNC(=O)[C@@H]1CC[C@@H]2CN1C(=O)N2OS(=O)(=O)[O-].[Na+]` [Example 4], the MIC in the assay on E. coli M 50 (setting [2]) is 0.5 µg/mL; in the assay with K. pneumoniae H521 (setting [3]), 1 µg/mL; with E. coli 7 MP (setting [4]), 1 µg/mL; with E. coli NCTC 13352 (setting [5]), 0.5 µg/mL; in assay [1] (setting [6]), over 32 µg/mL; in the assay on E. coli NCTC 13353 (setting [7]), 0.5 µg/mL. In the assay with K. pneumoniae H525 (setting [3]), the minimal inhibitory concentration (MIC) amounted to 1 µg/mL.

As to `O=C(Cn1ccnc1COC(=O)[C@@H]1CCCN1)NNC(=O)[C@@H]1CC[C@@H]2CN1C(=O)N2OS(=O)(=O)O` [Example 34], the MIC with E. coli M 50 (setting [2]) is 1 µg/mL; in the assay with K. pneumoniae H521 (setting [3]), 2 µg/mL; in the assay on E. coli 7 MP (setting [4]) it was 4 µg/mL; with E. coli NCTC 13352 (setting [5]) it was 1 µg/mL; in assay [1] (setting [6]), over 32 µg/mL; with E. coli NCTC 13353 (setting [7]), 1 µg/mL. The MIC in the assay on K. pneumoniae H525 (setting [3]) is 1 µg/mL.

`NCCCc1nnn(CC(=O)NNC(=O)[C@@H]2CC[C@@H]3CN2C(=O)N3OS(=O)(=O)O)n1` [Example 30]: the minimal inhibitory concentration (MIC) is 0.5 µg/mL in the assay with E. coli M 50 (setting [2]); 0.5 µg/mL in the assay with K. pneumoniae H521 (setting [3]); 1 µg/mL with E. coli 7 MP (setting [4]); 0.5 µg/mL in the assay with E. coli NCTC 13352 (setting [5]); over 32 µg/mL in assay [1] (setting [6]); 0.25 µg/mL in the assay on E. coli NCTC 13353 (setting [7]). Further, the MIC in the assay on K. pneumoniae H525 (setting [3]) came to 0.5 µg/mL.
